Results taken from PubChem BioAssay AID296 (DTP/NCI, 2004).
“And” between values parts separate entries of the source, which are not always exact repeats. Identical values can stand only once. Results filed as inconclusive are left out.

Test system: MX-1 breast xenograft, nude mice, tumor weight T/C
Assay: NCI In Vivo Anticancer Drug Screen. Data for tumor model Human Mammary Carcinoma MX-1 Xenograft (intrarenal inoculation) in NU/NU Swiss (nude) mice
Conditions: endpoint: mean tumor weight change, higher = larger tumour
Summary of the method: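 Tumor-bearing mice were treated with test compound alongside a vehicle-treated control group. Survival or tumor size was measured, and activity is expressed as the treated-group value divided by the control-group value.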

[1] = dose: 100.0 mg/kg/injection, schedule: Q01DX010 (sc), vehicle: saline with Tween-80
[2] = dose: 400.0 mg/kg/injection, schedule: Q01DX010 (sc), vehicle: saline with Tween-80
[3] = dose: 300.0 mg/kg/injection, schedule: Q04DX003 (sc), vehicle: saline with Tween-80
[4] = dose: 600.0 mg/kg/injection, schedule: Q04DX003 (sc), vehicle: saline with Tween-80
[5] = dose: 1200.0 mg/kg/injection, schedule: Q04DX003 (sc), vehicle: saline with Tween-80
[6] = dose: 2400.0 mg/kg/injection, schedule: Q04DX003 (sc), vehicle: saline with Tween-80
[7] = dose: 50.0 mg/kg/injection, schedule: Q04DX003 (sc), vehicle: Klucel (hydroxypropylcellulose) (HPC)
[8] = dose: 100.0 mg/kg/injection, schedule: Q04DX003 (sc), vehicle: saline with Tween-80
[9] = dose: 200.0 mg/kg/injection, schedule: Q04DX003 (sc), vehicle: saline with Tween-80
[10] = dose: 300.0 mg/kg/injection, schedule: Q04DX003 (sc), vehicle: Klucel (hydroxypropylcellulose) (HPC)

COC12[C@@H]3N[C@@H]3CN1C1=C(C(=O)C(NCCSSCCNC3=C(C)C(=O)C4=C(C3=O)C(COC(N)=O)[C@]3(OC)C5N[C@@H]5CN43)=C(C)C1=O)[C@@H]2COC(N)=O (stereo partly drawn)
T/C (dose: 3.12 mg/kg/injection, schedule: Q04DX003 (ip), vehicle: DMSO): 17 % of control | T/C (dose: 12.5 mg/kg/injection, schedule: Q04DX003 (ip), vehicle: DMSO): 14 % of control | T/C (dose: 25.0 mg/kg/injection, schedule: Q04DX003 (ip), vehicle: DMSO): -1 % of control

CC1C=NNC1=O (stereo not drawn)
T/C [1]: 123 % of control | T/C [2]: 62 % of control | T/C (dose: 800.0 mg/kg/injection, schedule: Q01DX010 (sc), vehicle: saline with Tween-80): 60 % of control

Nc1n[n+](-c2ccccc2)no1
T/C (dose: 18.75 mg/kg/injection, schedule: Q04DX003 (sc), vehicle: water): 70 % of control | T/C (dose: 37.5 mg/kg/injection, schedule: Q04DX003 (sc), vehicle: water): 94 % of control | T/C (dose: 75.0 mg/kg/injection, schedule: Q04DX003 (sc), vehicle: water): 59 % of control

CCCCCCCCCCCCCCCCCCCCCC(=O)Nc1ccn(C2OC(CO)C(O)C2O)c(=O)n1 (stereo not drawn)
T/C [3]: 123 % of control | T/C [4]: 87 % of control | T/C [5]: 68 % of control | T/C [6]: 84 % of control

CCC(C)Nc1ccc(N)cc1 (stereo not drawn)
T/C (dose: 4.5 mg/kg/injection, schedule: Q04DX003 (sc), vehicle: Klucel (hydroxypropylcellulose) (HPC)): 50 % of control | T/C (dose: 18.0 mg/kg/injection, schedule: Q04DX003 (sc), vehicle: Klucel (hydroxypropylcellulose) (HPC)): 76 % of control

C1CC[N-]CC1.[Cl][Pt+2][Cl].[NH-]C1CC1
T/C (dose: 25.0 mg/kg/injection, schedule: Q04DX003 (sc), vehicle: water): 60 % of control | T/C [7]: 34 % of control and 55 % of control | T/C (dose: 50.0 mg/kg/injection, schedule: Q04DX003 (sc), vehicle: water): 11 % of control | T/C (dose: 100.0 mg/kg/injection, schedule: Q04DX003 (sc), vehicle: water): -83 % of control

O=C(O)CSc1nc(-c2ccccc2)c(-c2ccccc2)n1-c1ccccn1
T/C (dose: 50.0 mg/kg/injection, schedule: Q01DX010 (sc), vehicle: water): 196 % of control | T/C (dose: 100.0 mg/kg/injection, schedule: Q01DX010 (sc), vehicle: water): 50 % of control | T/C (dose: 200.0 mg/kg/injection, schedule: Q01DX010 (sc), vehicle: water): 78 % of control

CCN(CC)CCOC(=O)Cc1cccc2c(=O)cc(-c3ccccc3)oc12
T/C [8]: 107 % of control | T/C [9]: 102 % of control

NCC1CCC(C(=O)O)CC1 (stereo not drawn)
T/C [4]: 115 % of control | T/C [5]: 76 % of control | T/C [6]: 155 % of control

CC[As](=O)(O)CC
T/C (dose: 100.0 mg/kg/injection, schedule: Q04DX003 (sc), vehicle: saline): 96 % of control | T/C (dose: 200.0 mg/kg/injection, schedule: Q04DX003 (sc), vehicle: saline): 88 % of control

CNC(=O)OCc1c(COC(=O)NC)c(C)n(-c2ccc(OC)cc2)c1C
T/C (dose: 50.0 mg/kg/injection, schedule: Q01DX010 (sc), vehicle: Klucel (hydroxypropylcellulose) (HPC)): 41 % of control | T/C [7]: 110 % of control | T/C (dose: 100.0 mg/kg/injection, schedule: Q01DX010 (sc), vehicle: Klucel (hydroxypropylcellulose) (HPC)): 9 % of control | T/C (dose: 100.0 mg/kg/injection, schedule: Q04DX003 (sc), vehicle: Klucel (hydroxypropylcellulose) (HPC)): 46 % of control | T/C (dose: 200.0 mg/kg/injection, schedule: Q01DX010 (sc), vehicle: Klucel (hydroxypropylcellulose) (HPC)): -52 % of control | T/C (dose: 400.0 mg/kg/injection, schedule: Q01DX010 (sc), vehicle: Klucel (hydroxypropylcellulose) (HPC)): -61 % of control | T/C (dose: 800.0 mg/kg/injection, schedule: Q04DX003 (sc), vehicle: Klucel (hydroxypropylcellulose) (HPC)): -100 % of control | T/C (dose: 1600.0 mg/kg/injection, schedule: Q04DX003 (sc), vehicle: Klucel (hydroxypropylcellulose) (HPC)): -100 % of control

[N-]=[N+]=CC(=O)CCC(N)C(=O)O (stereo not drawn)
T/C (dose: 0.1 mg/kg/injection, schedule: Q01DX010 (sc), vehicle: saline): -45 % of control | T/C (dose: 0.1 mg/kg/injection, schedule: Q02DX005 (sc), vehicle: saline): 3 % of control | T/C (dose: 0.2 mg/kg/injection, schedule: Q01DX010 (sc), vehicle: saline): -64 % of control | T/C (dose: 0.2 mg/kg/injection, schedule: Q02DX005 (sc), vehicle: saline): -13 % of control | T/C (dose: 0.4 mg/kg/injection, schedule: Q01DX010 (sc), vehicle: saline): -80 % of control | T/C (dose: 0.8 mg/kg/injection, schedule: Q02DX005 (sc), vehicle: saline): -90 % of control | T/C (dose: 1.6 mg/kg/injection, schedule: Q02DX005 (sc), vehicle: saline): -92 % of control | T/C (dose: 3.12 mg/kg/injection, schedule: Q04DX003 (sc), vehicle: DMSO): 11 % of control | T/C (dose: 3.13 mg/kg/injection, schedule: Q04DX003 (sc), vehicle: saline): 1 % of control | T/C (dose: 3.2 mg/kg/injection, schedule: Q02DX005 (sc), vehicle: saline): -100 % of control | T/C (dose: 6.25 mg/kg/injection, schedule: Q04DX003 (sc), vehicle: DMSO): 15 % of control | T/C (dose: 6.25 mg/kg/injection, schedule: Q04DX003 (sc), vehicle: saline): 1 % of control | T/C (dose: 12.5 mg/kg/injection, schedule: Q04DX003 (sc), vehicle: DMSO): 18 % of control | T/C (dose: 12.5 mg/kg/injection, schedule: Q04DX003 (sc), vehicle: saline): 1 % of control | T/C (dose: 25.0 mg/kg/injection, schedule: Q04DX003 (sc), vehicle: DMSO): 7 % of control | T/C (dose: 25.0 mg/kg/injection, schedule: Q04DX003 (sc), vehicle: saline): -7 % of control

CNC(=O)n1c(N)nc(-c2ccccc2)c1-c1ccccc1
T/C (dose: 150.0 mg/kg/injection, schedule: Q04DX003 (sc), vehicle: saline with Tween-80): 105 % of control | T/C [3]: 62 % of control | T/C [4]: 62 % of control | T/C [5]: 68 % of control

CC(C)NC(=O)N(CCCCBr)N=O
T/C (dose: 75.0 mg/kg/injection, schedule: Q04DX003 (sc), vehicle: Klucel (hydroxypropylcellulose) (HPC)): 42 % of control and 47 % of control | T/C [10]: 40 % of control

CC(=O)N(C)c1ccc(Nc2cc(C)[nH]c3ccc4ncnc4c23)cc1
T/C (dose: 50.0 mg/kg/injection, schedule: Q04DX003 (sc), vehicle: saline with Tween-80): 102 % of control | T/C [8]: 84 % of control | T/C [9]: 69 % of control

CN1C(=O)NC(c2ccc(Cl)cc2)(c2ccc(Cl)cc2)C1=O
T/C (dose: 50.0 mg/kg/injection, schedule: Q01DX010 (sc), vehicle: saline with Tween-80): 90 % of control | T/C [1]: 109 % of control | T/C (dose: 200.0 mg/kg/injection, schedule: Q01DX010 (sc), vehicle: saline with Tween-80): 60 % of control | T/C [2]: 49 % of control

O=C(c1cccnc1)c1cc(-c2ccccn2)c(=O)n2ccccc12
T/C [3]: 66 % of control | T/C [4]: 103 % of control | T/C [5]: 81 % of control | T/C [6]: 120 % of control

CS(=O)(=O)OCCCCOS(C)(=O)=O
T/C (dose: 6.25 mg/kg/injection, schedule: Q01DX010 (sc), vehicle: saline with Tween-80): 114 % of control | T/C (dose: 12.5 mg/kg/injection, schedule: Q01DX010 (sc), vehicle: saline with Tween-80): 68 % of control | T/C (dose: 25.0 mg/kg/injection, schedule: Q01DX010 (sc), vehicle: saline with Tween-80): 49 % of control

C/C=C/c1cc2n(c1)C(=O)c1cc(OC3OC(C)C(NC)C(C)(O)C3O)c(C)c(O)c1NC2O (stereo not drawn)
T/C (dose: 100.0 micrograms/kg/injection, schedule: Q04DX003 (sc), vehicle: saline): 182 % of control | T/C (dose: 200.0 micrograms/kg/injection, schedule: Q04DX003 (sc), vehicle: saline): 22 % of control | T/C (dose: 400.0 micrograms/kg/injection, schedule: Q04DX003 (sc), vehicle: saline): 91 % of control

OC1CCCC2CCC[N-]C12.OC1CCCC2CCC[N-]C12.[Mn+2] (stereo not drawn)
T/C [10]: 87 % of control | T/C (dose: 600.0 mg/kg/injection, schedule: Q04DX003 (sc), vehicle: Klucel (hydroxypropylcellulose) (HPC)): 108 % of control | T/C (dose: 1200.0 mg/kg/injection, schedule: Q04DX003 (sc), vehicle: Klucel (hydroxypropylcellulose) (HPC)): 65 % of control | T/C (dose: 2400.0 mg/kg/injection, schedule: Q04DX003 (sc), vehicle: Klucel (hydroxypropylcellulose) (HPC)): 73 % of control

CO[C@H]1C[C@](C)(O)Cc2cc3c(c(O)c21)C(=O)c1c(O)cc2c(c1C3=O)O[C@@H]1O[C@@]2(C)[C@H](O)[C@@H](N(C)C)[C@@H]1O
T/C (dose: 3.13 mg/kg/injection, schedule: Q01DX010 (sc), vehicle: other): 93 % of control | T/C (dose: 6.25 mg/kg/injection, schedule: Q01DX010 (sc), vehicle: other): 82 % of control | T/C (dose: 12.5 mg/kg/injection, schedule: Q01DX010 (sc), vehicle: other): 43 % of control
